Laboratory results: PMC8123555, “Precision targeting of the plasminogen activator inhibitor‐1 mechanism increases efficacy of fibrinolytic therapy in empyema” (Physiological Reports, 2021)

What was measured:
Type in all cases: in vivo, rabbit
FITC‐fibrin [1] = assay: Fibrinolytic activity in pleural fluids (FITC-fibrin film assay), empyema; settings: PAI-1-TFT with 2.0 mg/kg DSP, infectious pleural injury; for Steady-state level of pleural fluid fibrinolytic activity: relative to supplemented baseline
Procedure: (§1) A Pilot Fibrinolytic Assay (FPA96F) was used to measure fibrinolytic potential (Beckert et al., 2019; Florova et al., 2015) and fibrinolytic activity (Florova et al., 2015, 2018; Komissarov et al., 2016) in pleural fluid samples. To prepare a FITC‐fibrin film, a 1:1 mixture of FITC‐tagged and unlabeled fibrinogen (0.4 mg/ml) in 0.05 M Hepes/NaOH (pH 7.5, 130 mM NaCl, 5 mM CaCl2) buffer at room temperature was transferred to black 96‐well flat bottom plates from Costar (Corning Inc, NY). Human thrombin (final concentration 10 nM) was added to each well and plates were dried overnight in a dark chemical hood at room temperature. 96‐well plates with FITC‐fibrin film were washed three times with 0.3 ml of cold Hepes/NaOH buffer and stored at −20°C up to one year. Fibrinolytic activity in pleural fluids was calculated from the slopes of time‐dependences of an increase in the fluorescence emission at 512 nm (excitation at 490 nm) due to the degradation of FITC‐fibrin. Fibrinolytic potential was determined as the difference between fibrinolytic activity in samples of pleural fluid at baseline (BL) or 24 h measured with and without supplementation with sctPA (Florova et al., 2015). To determine whether PAI‐1‐TFT affects fibrinolytic potential in rabbits, BL values were plotted against fibrinolytic potential at 24 h and the linear correlation was determined using Sigmaplot 14.0.

[2] = system: chemically induced (TCN) pleural injury; assay: Fibrinolytic therapy of TCN-induced pleural injury in rabbits (GLIS, pleural thickening); settings: outcome at 24 h
Text: All animal procedures were approved by the Institutional Animal Care and Use Committee at The University of Texas Health Science Center at Tyler (IACUC protocols 499,616,617). Studies used female, pathogen‐free New Zealand white rabbits (3.0–3.6 kg; average age 18 weeks) from Charles River Laboratories (Wilmington, MA). These studies required a total of 107 rabbits, 43 for the model of TCN‐induced pleural injury and 64 for the model of empyema. […] Accumulation of pleural fluid and fibrin deposition was monitored using ultrasonography; detailed in the ultrasonography subsection. […] Animals were monitored carefully for signs of distress, pain, and worsening clinical status. […]
Development of pleural injury was monitored via ultrasonography. […]
For each animal, gross lung injury scores (GLIS) were calculated as previously described (Florova et al., 2015; Karandashova et al., 2013; Komissarov et al., 2013). […] Pleural thickening was measured using morphometry, as previously described (Komissarov et al., 2016).

[3] = system: Streptococcus pneumoniae induced empyema; assay: Fibrinolytic therapy of S. pneumoniae induced empyema in rabbits (GLIS, pleural thickening, WBC differential)
Procedure: All animal procedures were approved by the Institutional Animal Care and Use Committee at The University of Texas Health Science Center at Tyler (IACUC protocols 499,616,617). Studies used female, pathogen‐free New Zealand white rabbits (3.0–3.6 kg; average age 18 weeks) from Charles River Laboratories (Wilmington, MA). These studies required a total of 107 rabbits, 43 for the model of TCN‐induced pleural injury and 64 for the model of empyema. […] Briefly, a 3 ml mixture of TCN in ascorbic acid (20 mg/ml TCN (T3258, Sigma‐Aldrich), 2.5 mg/ml ascorbic acid (A7506, Sigma‐Aldrich) and lidocaine (1 mg/ml, UTHCT Compounding Pharmacy), was delivered by intrapleural injection. A model of acute empyema in rabbits was induced as described previously (Komissarov et al., 2016). Briefly, 1–5 × 10^8 cfu of S. pneumoniae (D39 strain, National Collection of Type Cultures, Salisbury UK) in 3 ml of 0.5% brain‐heart infusion agar (BD 238400, BD Diagnostic Systems) was delivered by intrapleural injection. Clavomox (10 mg/kg, subcutaneous, daily for 1–3 days as clinically indicated by Attending Veterinarian) (10000485, Zoetis) was started at 28–30 h post‐infection. Accumulation of pleural fluid and fibrin deposition was monitored using ultrasonography; detailed in the ultrasonography subsection. After 48 or 72 h for TCN‐induced pleural injury and empyema, respectively, intrapleural therapeutics were administered depending on treatment group via an 18‐gauge catheter, which was flushed with 0.5 ml PBS. In all experiments, samples of pleural fluids (0.5 ml) from each rabbit were collected prior to and at 10, 20, and 40 min after PAI‐1‐TFT and processed for later analysis (Florova et al., 2015; Karandashova et al., 2013; Komissarov et al., 2013, 2016). Anesthesia, postoperative pain medication, and animal care were provided as reported previously (Florova et al., 2015; Karandashova et al., 2013; Komissarov et al., 2013, 2016). with details provided in the supplement. Animals were monitored carefully for signs of distress, pain, and worsening clinical status. Euthanasia was accomplished using intravenous injection of 1 ml of commercial euthanasia solution (sodium pentobarbital 390 mg/ml and phenytoin 50 mg/ml) followed by exsanguination.
Development of pleural injury was monitored via ultrasonography. Briefly, B‐mode ultrasonography of the chest was performed (Komissarov et al., 2013, 2015) using a Logiq e system (GE Healthcare, Milwaukee, WI) using R5.2.x software and a multifrequency transducer model 12L‐RS at a working frequency of 10 MHz, as previously described (Komissarov et al., 2016).
For each animal, gross lung injury scores (GLIS) were calculated as previously described (Florova et al., 2015; Karandashova et al., 2013; Komissarov et al., 2013). PAI‐1‐TFT was considered successful when GLIS ≤10. Multiple fibrin webs or sheets connecting the visceral and parietal pleura or “too numerous to count” (TNTC) strands and a fibrinous lung coating correlated with a GLIS = 50. Pleural thickening was measured using morphometry, as previously described (Komissarov et al., 2016).

FITC‐fibrin [4] = assay: Fibrinolytic activity in pleural fluids (FITC-fibrin film assay), TCN-induced injury; settings: PAI-1-TFT with 2.0 mg/kg DSP, chemically induced injury; for Steady-state level of pleural fluid fibrinolytic activity: relative to supplemented baseline
Procedure: as §1

[5] = plasminogen activator 0.5 mg/kg alone, empyema

Substance	kobs of decrease in pleural fluid fibrinolytic activity to steady state (FITC‐fibrin [1])	Steady-state level of pleural fluid fibrinolytic activity (FITC‐fibrin [1])	Gross lung injury score (GLIS) ([2]; sctPA 72.5 µg/kg alone (1/2 of MED), n = 5)	Outcome of fibrinolytic therapy (GLIS) [3, 5]	Outcome of fibrinolytic therapy (GLIS) ([3]; sctPA 0.25 mg/kg alone, acute empyema)	GLIS of representative animal ([3]; sctPA 0.25 mg/kg alone, photograph 24 h after treatment)	Minimal effective dose (MED) of sctPA with DSP ([3]; with 8.0 mg/kg DSP, acute empyema)	kobs of decrease in pleural fluid fibrinolytic activity to steady state (FITC‐fibrin [4])	Steady-state level of pleural fluid fibrinolytic activity (FITC‐fibrin [4])	Gross lung injury score (GLIS) ([2]; scuPA 62.5 µg/kg alone (1/8 of MED), n = 6)
Alteplase [sctPA, reference compound]	0.48 ± 0.07 min⁻¹	1.5%	> 10	ineffective	ineffective	50	0.25 mg/kg	0.40 ± 0.11 min⁻¹	2.7%	
Prourokinase [scuPA]	0.16 ± 0.06 min⁻¹	2.5%		ineffective				0.09 ± 0.06 min⁻¹	5.6%	> 10
